The values below come from patent US20150031668A1, “CHROMAN DERIVATIVES AS TRPM8 INHIBITORS” (AMGEN INC., priority 2013, published 2015).

In this experiment the target is T1, human TRPM8 (Homo sapiens, UniProt Q7Z2W7).
T1 construct: expressed in transfected cells; host or cells: Chinese hamster ovary (CHO) cells, T-REx tetracycline-inducible expression system (Invitrogen); co-transfected with pcDNA3.1 aequorin
The experiment can be described thus: Luminescence readout assay for measuring intracellular calcium (aequorin, CHO cells expressing human TRPM8; icilin, L-menthol or cold activation). It counts as cell-based. As to conditions: CHO cells expressing human TRPM8, icilin activation (1 μM), aequorin luminescence; read-out: hTRPM8 IC50. Here is the method: Luminescence Readout Assay for Measuring Intracellular Calcium
A stable Chinese hamster ovary cell line expressing human TRPM8 was generated using tetracycline inducible T-REx™ expression system from Invitrogen, Inc. (Carlsbad, Calif.). […] Twenty four hours before the assay, cells were seeded in 96-well plates and TRPM8 expression was induced with 0.5 μg/ml tetracycline. On the day of the assay, culture media was removed and cells were incubated with assay buffer
Potential antagonists were added 2.5 min prior to the addition of agonist, 1 μM icilin, 100 μM L-menthol, or 1 min prior to the addition of cold buffer (<10° C.). The luminescence was measured by a CCD camera based FLASH-luminometer built by Amgen, Inc. A cooling device attached to FLASH luminometer was used for cold activation.

T1 sequence (Q7Z2W7 whole entry): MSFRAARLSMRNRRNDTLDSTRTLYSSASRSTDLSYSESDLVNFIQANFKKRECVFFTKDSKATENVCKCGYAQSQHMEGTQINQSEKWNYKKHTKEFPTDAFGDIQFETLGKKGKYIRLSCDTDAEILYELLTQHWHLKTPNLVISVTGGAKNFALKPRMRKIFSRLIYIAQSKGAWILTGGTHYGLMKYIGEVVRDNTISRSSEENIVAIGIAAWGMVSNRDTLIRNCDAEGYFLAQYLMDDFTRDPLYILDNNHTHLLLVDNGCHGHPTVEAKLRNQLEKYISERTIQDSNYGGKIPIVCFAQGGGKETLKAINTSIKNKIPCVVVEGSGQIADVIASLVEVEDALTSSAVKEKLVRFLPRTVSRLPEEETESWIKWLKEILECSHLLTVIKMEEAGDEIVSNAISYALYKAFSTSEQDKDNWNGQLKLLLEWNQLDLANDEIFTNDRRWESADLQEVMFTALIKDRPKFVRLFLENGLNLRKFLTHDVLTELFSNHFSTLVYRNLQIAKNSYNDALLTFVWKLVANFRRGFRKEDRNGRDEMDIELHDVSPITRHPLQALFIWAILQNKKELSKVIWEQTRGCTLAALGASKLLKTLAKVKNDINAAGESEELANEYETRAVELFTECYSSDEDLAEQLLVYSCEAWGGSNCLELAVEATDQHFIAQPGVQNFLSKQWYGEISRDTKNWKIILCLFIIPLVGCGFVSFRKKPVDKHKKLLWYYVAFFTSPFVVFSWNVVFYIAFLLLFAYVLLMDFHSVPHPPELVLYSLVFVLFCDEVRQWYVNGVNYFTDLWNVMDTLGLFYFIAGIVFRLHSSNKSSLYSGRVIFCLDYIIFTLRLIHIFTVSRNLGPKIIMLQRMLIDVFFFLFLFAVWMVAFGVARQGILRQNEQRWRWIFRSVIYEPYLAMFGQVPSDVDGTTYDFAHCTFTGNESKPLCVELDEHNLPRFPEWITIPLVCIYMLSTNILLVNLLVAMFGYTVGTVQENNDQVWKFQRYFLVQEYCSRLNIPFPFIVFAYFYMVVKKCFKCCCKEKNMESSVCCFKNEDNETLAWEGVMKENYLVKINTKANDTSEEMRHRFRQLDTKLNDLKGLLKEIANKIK

Consider `O=C(N[C@]1(c2ccc(C(F)(F)F)cc2)CCOc2cccnc21)c1ccn2ccnc2c1` [Example 49, (S)-N-(4-(4-(trifluoromethyl)phenyl)-3,4-dihydro-2H-pyrano[3,2-b]pyridin-4-yl)imidazo[1,2-a]pyridine-7-carboxamide], for which the half-inhibitory concentration (IC50) (as a rule, the concentration that gives 50% inhibition) worked out at 43 nM.

Turning to `O=C(N[C@]1(c2ccc(OC(F)(F)F)c(F)c2)CCOc2cccnc21)c1ccc(O)cn1` [Example 51, (S)-N-(4-(3-fluoro-4-(trifluoromethoxy)phenyl)-3,4-dihydro-2H-pyrano[3,2-b]pyridin-4-yl)-5-hydroxypicolinamide], the IC50 turned out to be 5 nM.

On to `O=C(N[C@]1(c2ccc(OC(F)(F)F)c(F)c2)CCOc2cccnc21)c1ccc2nccn2c1` [Example 52, (S)-N-(4-(3-fluoro-4-(trifluoromethoxy)phenyl)-3,4-dihydro-2H-pyrano[3,2-b]pyridin-4-yl)imidazo[1,2-a]pyridine-6-carboxamide], for which the IC50 amounted to 16 nM.

Take `Cn1ncc2cc(C(=O)N[C@]3(c4ccc(OC(F)(F)F)c(F)c4)CCOc4cccnc43)ccc21` [Example 53, (S)-N-(4-(3-fluoro-4-(trifluoromethoxy)phenyl)-3,4-dihydro-2H-pyrano[3,2-b]pyridin-4-yl)-1-methyl-1H-indazole-5-carboxamide]: the IC50 was determined as 15 nM.

`O=C1CCc2cc(C(=O)N[C@]3(c4ccc(OC(F)(F)F)c(F)c4)CCOc4cccnc43)ccc2N1` [Example 54, (S)-N-(4-(3-fluoro-4-(trifluoromethoxy)phenyl)-3,4-dihydro-2H-pyrano[3,2-b]pyridin-4-yl)-2-oxo-1,2,3,4-tetrahydroquinoline-6-carboxamide]: the IC50 worked out at 11 nM.

For the compound `O=C(N[C@]1(c2ccc(OC(F)(F)F)c(F)c2)CCOc2cccnc21)c1ccc(F)cn1` [Example 55, (S)-5-fluoro-N-(4-(3-fluoro-4-(trifluoromethoxy)phenyl)-3,4-dihydro-2H-pyrano[3,2-b]pyridin-4-yl)picolinamide], the half-inhibitory concentration (IC50) worked out at 22 nM.

Take `O=C(N[C@]1(c2ccc(C(F)(F)F)cc2)CCOc2cccnc21)c1ccc2cccnc2c1` [Example 56, (S)-N-(4-(4-(trifluoromethyl)phenyl)-3,4-dihydro-2H-pyrano[3,2-b]pyridin-4-yl)quinoline-7-carboxamide]: the IC50 is 21 nM.

As to `O=C(N[C@]1(c2ccc(OC(F)(F)F)c(F)c2)CCOc2cccnc21)c1ccc2oc(=O)[nH]c2c1` [Example 57, (S)-N-(4-(3-fluoro-4-(trifluoromethoxy)phenyl)-3,4-dihydro-2H-pyrano[3,2-b]pyridin-4-yl)-2-oxo-2,3-dihydrobenzo[d]oxazole-5-carboxamide], the IC50 was determined as 4 nM.

Consider `O=C(N[C@]1(c2ccc(C(F)(F)F)cc2)CCOc2cccnc21)c1ccc(=O)[nH]c1` [Example 60, (S)-6-oxo-N-(4-(4-(trifluoromethyl)phenyl)-3,4-dihydro-2H-pyrano[3,2-b]pyridin-4-yl)-1,6-dihydropyridine-3-carboxamide], for which the IC50 is 125 nM.

Consider `O=C(N[C@]1(c2ccc(OC(F)(F)F)c(F)c2)CCOc2cccnc21)c1ccc([N+](=O)[O-])cn1` [Example 62, (S)-N-(4-(3-fluoro-4-(trifluoromethoxy)phenyl)-3,4-dihydro-2H-pyrano[3,2-b]pyridin-4-yl)-5-nitropicolinamide], for which the 50% inhibitory concentration (IC50) came out at 51 nM.

For `CNC(=O)c1ccc(C(=O)N[C@]2(c3ccc(OC(F)(F)F)c(F)c3)CCOc3cccnc32)cn1` [Example 63, (S)-N5-(4-(3-fluoro-4-(trifluoromethoxy)phenyl)-3,4-dihydro-2H-pyrano[3,2-b]pyridin-4-yl)-N2-methylpyridine-2,5-dicarboxamide], the IC50 turned out to be 19 nM.

In the case of `O=C(N[C@]1(c2ccc(OC(F)(F)F)c(F)c2)CCOc2cccnc21)c1ccc2[nH]c(=O)c(=O)[nH]c2c1` [Example 64, (S)—N-(4-(3-fluoro-4-(trifluoromethoxy)phenyl)-3,4-dihydro-2H-pyrano[3,2-b]pyridin-4-yl)-2,3-dioxo-1,2,3,4-tetrahydroquinoxaline-6-carboxamide], the IC50 came out at 335 nM.
